Laboratory results: patent publication US20130149701A1, “METHODS OF IDENTIFYING THERAPEUTIC AGENTS FOR TREATING PERSISTER AND BACTERIAL INFECTION” (priority 2010, published 2013)
≈ marks a conversion by molar mass, not a printed value. Entries after “also recorded” stand apart in the source; their conditions may differ. Read-outs that look alike come from different tables or passages of the source.

Key:
[1] = biological target: DHM444 mutant RpsA binding to tmRNA (Mycobacterium tuberculosis, UniProt P9WH43, DEL438-438); parameters: species or system M. tuberculosis
[2] = test system: M. tuberculosis strains (wild type and wild type/pOLYG, and wild type/pOLYG+rpsA); assay: microbe, parasite or virus in culture; type: cell-based; conditions: for susceptibility of the RpsA overexpressing Mtb strain to other drugs: compared with parent strain or vector control strain, pH6.8; for MIC: Mycobacterium tuberculosis, read-out: minimum inhibitory concentration (MIC)
[3] = biological target: mutant RpsAΔA438 from the PZA-resistant strain DHM444 (Mycobacterium tuberculosis, UniProt P9WH43, DEL438-438); type: binding, M. tuberculosis
M. tuberculosis = type: cell-based
[4] = test system: Mtb clinical isolate DHM444 / H37Rv; assay: microbe, parasite or virus in culture; type: cell-based, M. tuberculosis; conditions: Mycobacterium tuberculosis

Compound	effect on tmRNA binding to mutant RpsA [1]	susceptibility of the RpsA overexpressing Mtb strain to other drugs [2]	binding to mutant RpsA (ITC) [3]	further results
NNC(=O)c1ccncc1 [INH, isoniazid]	no effect; also recorded: not affected	remained the same		
O=C(O)c1cnccn1 [POA, 2-pyrazinecarboxylic acid]	did not inhibit		not and failed to bind	
NC(=O)c1cnccn1 [PZA, Pyrazinamide]	no effect; also recorded: not affected		did not bind; also recorded: failed to bind	MIC (M. tuberculosis): 10 µg/mL (≈ 81.2 µM); PZA susceptibility (M. tuberculosis): more susceptible; effect on PZA susceptibility (M. tuberculosis): did not have significant effect; reduction in MIC (M. tuberculosis): 5 fold; MIC [4]: 200 to 300 µg/mL (≈ 1620 to 2440 µM); MIC ([2]; pH 5.5, PZA, vector control and parental Mtb strain, pH 5.5): 100 µg/mL (≈ 812 µM); MIC ([2]; pH 5.5): 500 µg/mL (≈ 4060 µM); increase in the minimum inhibitory concentration (MIC) ([2]; pH 5.5): 5 fold
CCn1cc(C(=O)O)c(=O)c2cc(F)c(N3CCNCC3)cc21 [norfloxacin]		remained the same		
CO[C@H]1/C=C/O[C@@]2(C)Oc3c(C)c(O)c4c(O)c(c(/C=N/N5CCN(C)CC5)c(O)c4c3C2=O)NC(=O)/C(C)=C\C=C\[C@H](C)[C@H](O)[C@@H](C)[C@@H](O)[C@@H](C)[C@H](OC(C)=O)[C@@H]1C [rifampin]		remained the same		
[H]/N=C(/N)N[C@H]1[C@H](O)[C@@H](O)[C@H](O[C@@H]2O[C@@H](C)[C@](O)(C=O)[C@H]2O[C@@H]2O[C@@H](CO)[C@H](O)[C@@H](O)[C@@H]2NC)[C@@H](N/C(N)=N\[H])[C@@H]1O [streptomycin]		remained the same		
